Laboratory results reported in the supplement of paper PMC10307832.

Tests used:
Assay in all cases: relative viability (nuclei count vs DMSO), 5 days (fraction); higher = more cells survive
Ruxolitinib + Linsitinib = compound: N#CC[C@H](C1CCCC1)n1cc(-c2ncnc3[nH]ccc23)cn1 [Ruxolitinib] + C[C@]1(O)C[C@@H](c2nc(-c3ccc4ccc(-c5ccccc5)nc4c3)c3c(N)nccn32)C1 [Linsitinib] (partner 1 µM)
How it was run: (§1)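 Relative viability was taken as the ratio of nuclei in treated wells to nuclei in vehicle wells. Lung cancer cell lines in 1536-well plates received compounds by pin tool one day after seeding, either one drug alone or a fixed anchor-drug dose plus five library-drug doses (not always all listed) in √10 steps. Nuclei were counted on 4× images after 5 days of treatment, and values are medians of duplicate plates.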

Vismodegib + Lapatinib = compound: CS(=O)(=O)c1ccc(C(=O)Nc2ccc(Cl)c(-c3ccccn3)c2)c(Cl)c1 [Vismodegib] + CS(=O)(=O)CCNCc1ccc(-c2ccc3ncnc(Nc4ccc(OCc5cccc(F)c5)c(Cl)c4)c3c2)o1 [Lapatinib] (partner 2 µM)
How it was run: as §1

VE-821 + Pictilisib = compound: CS(=O)(=O)c1ccc(-c2cnc(N)c(C(=O)Nc3ccccc3)n2)cc1 [VE-821] + CS(=O)(=O)N1CCN(Cc2cc3nc(-c4cccc5[nH]ncc45)nc(N4CCOCC4)c3s2)CC1 [Pictilisib] (partner 1 µM)
How it was run: as §1

Ruxolitinib + Navitoclax = compound: N#CC[C@H](C1CCCC1)n1cc(-c2ncnc3[nH]ccc23)cn1 [Ruxolitinib] + CC1(C)CCC(c2ccc(Cl)cc2)=C(CN2CCN(c3ccc(C(=O)NS(=O)(=O)c4ccc(N[C@H](CCN5CCOCC5)CSc5ccccc5)c(S(=O)(=O)C(F)(F)F)c4)cc3)CC2)C1 [Navitoclax] (partner 0.5 µM)
How it was run: as §1

| Cell Line | relative viability (Ruxolitinib + Linsitinib; first compound 0.08 µM) | relative viability (Ruxolitinib + Linsitinib; first compound 0.253 µM) | relative viability (Ruxolitinib + Linsitinib; first compound 0.8 µM) | relative viability (Ruxolitinib + Linsitinib; first compound 2.53 µM) | relative viability (Ruxolitinib + Linsitinib; first compound 8 µM) | relative viability (Vismodegib + Lapatinib; first compound 0.08 µM) | relative viability (Vismodegib + Lapatinib; first compound 0.253 µM) | relative viability (Vismodegib + Lapatinib; first compound 0.8 µM) | relative viability (Vismodegib + Lapatinib; first compound 2.53 µM) | relative viability (Vismodegib + Lapatinib; first compound 8 µM) | relative viability (VE-821 + Pictilisib; first compound 0.08 µM) | relative viability (VE-821 + Pictilisib; first compound 0.253 µM) | relative viability (VE-821 + Pictilisib; first compound 0.8 µM) | relative viability (VE-821 + Pictilisib; first compound 2.53 µM) | relative viability (VE-821 + Pictilisib; first compound 8 µM) | relative viability (Ruxolitinib + Navitoclax; first compound 0.08 µM) | relative viability (Ruxolitinib + Navitoclax; first compound 0.253 µM) | relative viability (Ruxolitinib + Navitoclax; first compound 0.8 µM) | relative viability (Ruxolitinib + Navitoclax; first compound 2.53 µM) | relative viability (Ruxolitinib + Navitoclax; first compound 8 µM) |
| --- | --- | --- | --- | --- | --- | --- | --- | --- | --- | --- | --- | --- | --- | --- | --- | --- | --- | --- | --- | --- |
| NCI-H2347 | 0.893 | 0.939 | 1.05 | 0.886 | 0.965 | 0.962 | 0.989 | 0.901 | 0.808 | 0.938 | 0.565 | 0.583 | 0.563 | 0.525 | 0.485 | 0.783 | 0.72 | 0.99 | 0.741 | 0.758 |
| NCI-H1299 | 0.981 | 0.974 | 0.975 | 0.917 | 0.871 | 0.952 | 0.893 | 0.992 | 0.968 | 1 | 0.769 | 0.606 | 0.689 | 0.771 | 0.357 | 1.03 | 1.05 | 1.02 | 1.02 | 0.85 |
| BEN | 0.751 | 0.887 | 1.15 | 0.758 | 1.03 | 0.77 | 0.718 | 0.778 | 0.844 | 0.733 | 0.707 | 0.55 | 0.527 | 0.591 | 0.542 | 0.0601 | 0.0767 | 0.0749 | 0.0665 | 0.0571 |
| NCI-H23 | 0.579 | 0.694 | 0.799 | 0.485 | 0.612 | 1.1 | 1.08 | 1.09 | 1.11 | 1.09 | 0.554 | 0.458 | 0.506 | 0.469 | 0.277 | 0.716 | 1.12 | 0.978 | 0.801 | 0.929 |
| LU99A | 0.549 | 0.499 | 0.541 | 0.554 | 0.499 | 0.928 | 1.04 | 1.04 | 1.04 | 0.979 | 0.362 | 0.311 | 0.29 | 0.319 | 0.253 | 0.986 | 0.737 | 0.803 | 0.751 | 0.666 |
| SW 1573 | 0.948 | 0.669 | 0.848 | 0.707 | 0.534 | 0.974 | 1.08 | 1.14 | 0.959 | 1.18 | 0.625 | 0.531 | 0.541 | 0.569 | 0.47 | 1.06 | 0.925 | 1.02 | 0.918 | 1.04 |
| NCI-H2009 | 1.21 | 1.23 | 1.28 | 1.02 | 0.904 | 0.901 | 0.891 | 0.892 | 0.899 | 0.788 | 0.873 | 0.754 | 0.881 | 0.894 | 0.664 | 1.2 | 1.2 | 1.16 | 0.961 | 0.897 |
| HCC-15 | 0.855 | 0.849 | 0.855 | 0.842 | 0.737 | 0.883 | 0.854 | 0.823 | 0.882 | 0.74 | 0.947 | 0.757 | 0.781 | 0.92 | 0.749 | 0.688 | 0.686 | 0.699 | 0.629 | 0.567 |
| NCI-H1703 | 1.07 | 0.624 | 1.25 | 0.451 | 0.547 | 1.12 | 0.822 | 1.21 | 1.16 | 1.52 | 0.241 | 0.233 | 0.25 | 0.227 | 0.192 | 1.18 | 1.23 | 1.23 | 0.562 | 0.611 |
| EPLC-272H | 1.26 | 1.12 | 1.31 | 1.19 | 1.25 | 0.789 | 0.893 | 0.947 | 0.939 | 0.91 | 0.427 | 0.32 | 0.347 | 0.399 | 0.309 | 1.48 | 1.14 | 1.31 | 1.05 | 0.954 |
| NCI-H1792 | 0.495 | 0.504 | 0.488 | 0.417 | 0.499 | 0.851 | 0.97 | 0.872 | 0.79 | 0.878 | 0.274 | 0.393 | 0.281 | 0.319 | 0.271 | 0.658 | 0.644 | 0.595 | 0.473 | 0.519 |
| HCC-78 | 0.419 | 0.296 | 0.437 | 0.372 | 0.414 | 0.278 | 0.646 | 0.667 | 0.701 | 0.746 | 0.207 | 0.237 | 0.229 | 0.22 | 0.206 | 0.663 | 0.528 | 0.692 | 0.604 | 0.702 |
| LXF-289 | 0.919 | 0.972 | 0.858 | 0.892 | 0.813 | 0.912 | 0.894 | 0.916 | 0.962 | 0.875 | 0.969 | 0.754 | 0.796 | 0.869 | 0.808 | 0.914 | 0.956 | 0.891 | 0.92 | 0.778 |
| NCI-H460 | 0.801 | 0.858 | 0.929 | 0.702 | 0.462 | 0.903 | 0.887 | 1.2 | 0.823 | 1.03 | 0.416 | 0.355 | 0.288 | 0.488 | 0.325 | 1.17 | 1.34 | 1.34 | 1.13 | 0.656 |
| NCI-H2023 | 0.689 | 0.589 | 0.722 | 0.683 | 0.672 | 0.426 | 0.871 | 0.738 | 0.76 | 0.935 | 0.278 | 0.223 | 0.191 | 0.194 | 0.135 | 1 | 0.94 | 1.08 | 0.939 | 0.855 |
| SK-LU-1 | 1.16 | 1.19 | 1.27 | 0.974 | 0.945 | 0.769 | 0.887 | 0.991 | 0.776 | 0.884 | 0.602 | 0.557 | 0.621 | 0.432 | 0.316 | 0.79 | 0.634 | 0.0636 | 0.539 | 0.656 |
